One assay addresses T1, Mag-lipase (Rattus norvegicus, UniProt Q8R431).
T1 construct: supernatant from final spin in the anandamide amidase preparation; from tissue; host or cells: supernatant (soluble fraction) of the anandamide amidase preparation, rat brain by the cited procedure
T1 sequence (Q8R431 1-303): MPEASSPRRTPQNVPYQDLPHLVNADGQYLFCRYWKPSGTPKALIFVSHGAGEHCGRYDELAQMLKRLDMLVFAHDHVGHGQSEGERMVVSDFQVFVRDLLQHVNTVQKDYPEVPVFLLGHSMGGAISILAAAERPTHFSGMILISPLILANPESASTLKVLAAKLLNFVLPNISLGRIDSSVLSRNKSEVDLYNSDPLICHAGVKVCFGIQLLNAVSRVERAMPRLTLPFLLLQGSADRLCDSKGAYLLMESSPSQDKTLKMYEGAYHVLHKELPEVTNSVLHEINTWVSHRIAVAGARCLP
As to the kind of experiment: Inhibition of MAG-lipase: 2-AG metabolism to arachidonic acid. The assay is classed as biochemical. To be noted: 20 min, 30 nmoles compound with 30 nmoles 2-AG, 30 μg enzyme, 300 μL. On the procedure: All compound solutions were made to a concentration of 10 mM in DMSO. Three tests were performed on each compound: hydrolysis, to determine the stability of the compound in assay conditions without the enzyme present; metabolism, to determine the stability of the compound with the enzyme present; and inhibition of 2-Arachidonoyl glycerol (native substrate) metabolism to arachidonic acid.
The inhibition of 2-AG metabolism was measured by mixing 30 nmoles of the compound with 30 nmoles 2-AG, and 30 μg enzyme preparation in TME buffer (final volume of 300 μL). Again the reaction mixture was treated in the same manner as described above and the concentrations of 2-AG and AA were calculated using external standards. Percent inhibition was calculated using the following equation: % Inhib.=(AA20-AA0)i/(AA20-AA0)s where (AA20-AA0)i is the amount of arachidonic acid formed over 20 minutes from 2-AG with the inhibitor present and (AA20-AA0)s is the amount of arachidonic acid formed over 20 minutes from 2-AG when the inhibitor is not present. […] The reaction mixtures were treated as described above and the amount of AA formed was calculated. The software package GraphPad Prism was utilized to calculate IC50 and Ki. HPLC Conditions:
Chromatographic separation was achieved using an Ultrasphere ODS Pre-column (4.6×45 mm) from Beckman. Hardware consisted of a Waters Millennium HPLC system with a 20 μL injection loop. The mobile phase consisted of 8.5% o-phosphoric acid:acetonitrile (3:7), run isocratically at a rate of 1 mL/min and detection at 204 nm. The total run time was 8 minutes with 2-AG eluting at 3.0 minutes and AA at 6.0 minutes.

A further assay deals with anandamide transporter. In words: [3H]Anandamide transporter competition assay. The assay is classed as cell-based. To be noted: human CCF-STG1 astrocytoma cells, 10 nM [3H]anandamide.

Read-outs that look alike come from different tables or passages of the source.

What is called inhibition is the relative decrease from the control value, in per cent. High values mean a response far below the control, low ones a response near the control. Consider `O=C(CCC/C=C\C/C=C\C/C=C\C/C=C\CCCCc1ccccc1)NCC1CC1` [Compound A1], for which the inhibition at 100 µM at Mag-lipase was found to be 20.5%.

`O=C(CCC/C=C\C/C=C\C/C=C\C/C=C\CCc1ccccc1)NCC1CC1` [Compound A2]: at Mag-lipase, testing at 100 µM gave an inhibition of 37.5%.

A word on the IC50: it is the concentration needed to halve the response being measured. Regarding `O=C(CCC/C=C\C/C=C\C/C=C\C/C=C\CCc1ccccc1)Nc1ccc(O)cc1` [Compound A3], the inhibition at 100 µM at Mag-lipase turned out to be 16.7%. In addition, the IC50 in the assay with anandamide transporter (read-out: IC50 AT inhibition) is 9.1 µM.

Molecule `O=C(CCC/C=C\C/C=C\C/C=C\C/C=C\CCc1ccccc1)Nc1nccs1` [Compound A4] yielded an inhibition at 100 µM at Mag-lipase of 9.2%.

Regarding `[N-]=[N+]=NCCCC/C=C\C/C=C\C/C=C\C/C=C\CCCC(=O)NCC1CC1` [Compound A6], on Mag-lipase, testing at 100 µM gave an inhibition of 20.7%.

`COc1cc(CNC(=O)CCC/C=C\C/C=C\C/C=C\C/C=C\CCCCN=[N+]=[N-])ccc1O` [Compound A7] registered an inhibition at 100 µM against Mag-lipase of 13.7%.

In turn, `O=C(CCC/C=C\C/C=C\C/C=C\C/C=C\CCCCCBr)NC1CC1` [Compound A18] registered an inhibition at 100 µM on Mag-lipase of 22.5%. Moreover, the IC50 in the assay with anandamide transporter (read-out: IC50 AT inhibition) is 6.7 µM.

In the case of `CCCCCC=CCC=CCC=CCC=CCCCCOC(=O)NCC(C)O` (centres unmarked) [Compound B3], the “Mag-Lipase % Inhibition” value at Mag-lipase was 14.3%. For the same molecule, the IC50 in the assay on anandamide transporter (read-out: IC50 (AT inhib.)) came to 1.5 µM.

The molecule `CCCCC/C=C\C/C=C\C/C=C\C/C=C\CCCCNC(=O)NC[C@H](C)O` [Compound B12] had an inhibition at 100 µM against Mag-lipase of 11.1%. Further, in the assay with anandamide transporter (read-out: IC50 (AT inhib.)), the IC50 is 1.78 µM.

Take `CCCCC/C=C\C/C=C\CCCCCCCCOC(=O)NC[C@H](C)O` [Compound B14]: the “Mag-Lipase % Inhibition” value on Mag-lipase amounted to 25.8%. In addition, the concentration for half-maximal inhibition (IC50) in the assay with anandamide transporter (read-out: IC50 (AT inhib.)) was determined as 7.21 µM.

With `CC/C=C\C/C=C\C/C=C\CCCCCCCCOC(=O)NC[C@H](C)O` [Compound B15], the “Mag-Lipase % Inhibition” value on Mag-lipase was determined as 24.6%. Also, in the assay on anandamide transporter (read-out: IC50 (AT inhib.)), the IC50 was found to be 4.5 µM.
